Series [1] can be described thus: logP by HPLC on reversed-phase column (C18), acidic range. The format is physicochemical. Particulars: reversed-phase HPLC column (C18), formic acid in water/acetonitrile. The protocol: The logP values were determined according to EEC Directive 79/831 Annex V.A8 by HPLC (high-performance liquid chromatography) on a reversed-phase column (C18) using the following methods:
Calibration was carried out using a homologous series of straight-chain alkan-2-ones (having 3 to 16 carbon atoms) with known logP values. The values between successive alkanones are determined by linear regression.

Series [2] relates to caterpillars of the armyworm (Spodoptera frugiperda). Description: Comparative Spodoptera frugiperda drench test (SPODFR D). The format is in vivo. Particulars: soil, 336 h, 14 dat, read-out: % efficacy. The protocol: (§1) Solvent: 7 parts by weight of dimethylformamide
(§2) Emulsifier: 2 parts by weight of alkylaryl polyglycol ether
(§3) To produce a suitable active ingredient formulation, 1 part by weight of active ingredient is mixed with the specified amounts of solvent and emulsifier, and the concentrate is diluted with water to the desired concentration, it being necessary to take into account the volume of soil which is drenched. It should be ensured that a concentration of 40 ppm of emulsifier in the soil is not exceeded. To produce further test concentrations, water is used for dilution.
Maize plants (Zea mays) in pots of soil are watered with an active ingredient formulation of the desired concentration and infected with caterpillars of the armyworm (Spodoptera frugiperda).
After the desired time, the kill in % is determined. 100% means that all caterpillars have been killed; 0% means that none of the caterpillars have been killed.

Series [3] relates to green peach aphid (Myzus persicae). The experiment in a line: Comparative Myzus persicae spray test (MYZUPE). The format is in vivo. As to conditions: 144 h, 6 dat, read-out: % efficacy. The protocol:
(§4) Solvent: 14 parts by weight of dimethylformamide
(§5) Emulsifier: alkylaryl polyglycol ether
(§6) To produce a suitable active compound formulation, 1 part by weight of active compound is dissolved with the specified parts by weight of solvent and made up to the desired concentration with water containing an emulsifier concentration of 1000 ppm. To produce further test concentrations, the formulation is diluted with emulsifier-containing water. If the addition of ammonium salts or/and penetrants is required, these are each added in a concentration of 1000 ppm to the formulation solution.
Bell pepper plants (Capsicum annuum) severely infested with the green peach aphid (Myzus persicae) are treated by spraying with the active ingredient formulation in the desired concentration.
After the desired time, the kill in % is determined. 100% means that all the animals have been killed; 0% means that no animals have been killed.

The test system of series [4] is green peach aphids (Myzus persicae). Description: Myzus persicae oral test. It counts as in vivo. Particulars: 120 h, 4 ppm, after 5 days, read-out: efficacy. The protocol: Solvent: 100 parts by weight of acetone
To produce a suitable active compound formulation, 1 part by weight of active compound is dissolved with the stated parts by weight of solvent and made up to the desired concentration with water.
50 μl of the active compound formulation are transferred into microtitre plates and made up to a final volume of 200 μl with 150 μl of IPL41 insect medium (33%+15% sugar). Subsequently, the plates are sealed with parafilm, which a mixed population of green peach aphids (Myzus persicae) within a second microtitre plate is able to puncture and imbibe the solution.
After 5 days, the efficacy in % is determined. 100% means that all the aphids have been killed; 0% means that no aphids have been killed.

For series [5], the system named is larvae of the mustard beetle (Phaedon cochleariae). Description: Comparative Phaedon cochleariae spray test (PHAECO). It counts as in vivo. As to conditions: 168 h, 7 dat, read-out: % efficacy. The protocol:
as §4, §5, §6
Cabbage leaves (Brassica oleracea) are sprayed with an active ingredient formulation of the desired concentration and populated with larvae of the mustard beetle (Phaedon cochleariae).
After the desired time, the kill in % is determined. 100% means that all the beetle larvae have been killed; 0% means that no beetle larvae have been killed.

Series [6] concerns L2 larvae of the banded cucumber beetle (Diabrotica balteata). The experiment in a line: Comparative Diabrotica balteata drench test (DIABBA D). As to conditions: soil, 192 h, 8 dat, read-out: % efficacy. It counts as in vivo. The protocol: as §1, §2, §3
In each case 5 maize corns (Zea mays) are sown into pots filled with earth, and the next day the pots are watered with the active compound preparation of the desired concentration. After one day, about 25 L2 larvae of the banded cucumber beetle (Diabrotica balteata) are added.
After 8 days, the efficacy in % is determined. 100% means that all 5 plants have germinated and grown; 0% means that none of the plants has emerged.

For `CCS(=O)(=O)c1c(-c2nc3cc(C(F)(F)F)cnc3n2C)nc2cc(C3(C#N)CC3)ccn12` [Example I-11, 1-{3-(Ethylsulfonyl)-2-[3-methyl-6-(trifluoromethyl)-3H-imidazo[4,5-b]pyridin-2-yl]imidazo[1,2-a]pyridin-7-yl}cyclopropanecarbonitrile], the chromatographic logP in series [1] was determined as 2.88. In series [2], the Emax at 0.16 ppm worked out at 100%. Also, the Emax at 0.8 ppm was determined as 90% in series [3], 60% in series [5] (0.8 ppm) and 80% in series [6] (0.8 ppm). In addition, in series [4], the pest or weed control at 4 ppm was found to be 90%. Besides, the Emax at 4 ppm in series [5] (4 ppm) and in series [6] (4 ppm) was 100% throughout.

The values above are taken from patent USRE50663E1, “Heterocycle derivatives as pesticides” (Bayer Aktiengesellschaft, priority 2017, dated 2025).
